Entries after “also recorded” stand apart in the source; their conditions may differ. Where two headings read alike, the source gives them in different places.
Columns and labels:
NS2B/3 proteinase = molecular target: NS2B/3 proteinase; set-up: method as in PMID 30228122; details: read-out: IC50, inhibition of NS2B/3 proteinase cleavage activity in solution; cited from earlier work
dengue virus [1] = test system: dengue virus; set-up: method as in PMID 25823617; details: read-out: IC50, inhibition of viral growth in cell culture; cited from earlier work
DENV2 [2] = assay: Antiviral activity in DENV2-infected Huh7 cells, infectious virus in supernatant by plaque assay; type: cell-based, dengue virus; details: Dengue virus
Description: FIG 2 Pyrimethamine inhibits dengue virus and NS2B/3 proteinase cleavage like ARDP0006. (A) Chemical structures and (B) ROCS overlay of ARDP0006 and pyrimethamine. […] Infectious virus in cell supernatant was quantified by plaque assay at 24 hpi (left y axis, black or red). Cell viability was measured at the same pyrimethamine doses 24 h posttreatment by WST-1 assay (right y axis, gray). Viral titer and cell viability were normalized to DMSO-treated samples. (D) Splenic titers of DENV2-infected AGB6 mice at 4 days postinfection. Mice were infected with 1 × 10^6 PFU DENV2 and treated twice daily with 20 mg/kg pyrimethamine (n = 9) or a vehicle control (n = 10). Data were analyzed by two-tailed unpaired t test. (E) Cleavage kinetics of NS2B/3/4A in the presence of 100 μM pyrimethamine. NS2B/3/4A protein was expressed in vitro and radiolabeled with [^35S]methionine, followed by treatment with 100 μM pyrimethamine or DMSO. Reaction samples were obtained over a 45-min time course, separated by SDS-PAGE, and the fraction of uncleaved proteinase precursor remaining was determined as described previously ([23]). Data from three replicates were fit using single-phase exponential decay functions, and P value was determined by comparing the rate constant, K, of the models using the extra sum-of-squares F test.
Dengue plaque assays were carried out on BHK-21 cells in 24-well plates. Cells were infected with 10-fold serial dilutions of virus, which were allowed to adsorb for at least 1 h at 37°C, and overlaid with standard cell culture medium plus 0.37% (w/vol) sodium bicarbonate and 0.8% (w/vol) Aquacide II (Millipore Calbiochem). After 7 days of incubation at 37°C, 5% CO2, cells were fixed with 5% (final) formaldehyde and stained with crystal violet for plaque enumeration.
Between 4 × 10^4 and 1 × 10^5 Huh7 cells per well were seeded into 24-well plates 1 day prior to infection. Compounds were diluted to 100× final concentration in DMSO and then further diluted 1:100 into appropriate cell culture. Unless otherwise indicated, tested compounds were present for 1 h pretreatment and readministered for posttreatment following infection. […] Media and drugs were removed from cells for infection at a multiplicity of infection (MOI) of 0.1 or 0.5 in 200 μl cold medium per well. After 1 h at 37°C, virus inoculum was removed by aspiration and replaced with medium plus compound or control. After 24-h total infection, infectious virus was quantified by plaque assay. Antiviral IC50 dose-response curves were fitted in GraphPad Prism 8 using the “[inhibitor] versus response, variable slope” function with a constraint “bottom > 0.” IC90 values are defined as the dose at which “y = (span × 0.1) + bottom.”

[3] = ref PubChem database, cited from earlier work; for LD50: single dose
DENV2 [4] = assay: DENV2-infected AGB6 mouse model (splenic titer, survival); type: in vivo, AGB6 mice; details: for Splenic titer of dengue virus: AGB6 mice, 20 mg/kg pyrimethamine twice daily, oral gavage, 4 days postinfection, 20 mg/kg
dengue virus [5] = assay: Initial screening of hit compounds for anti-dengue activity in tissue culture cells (Table S1); type: cell-based; details: viral titer relative to vehicle, tissue culture cell lines (BHK-21 48 hpi, Fig. S1; Huh7, Fig. 2C, 3C, 4C)
Description: For each query molecule, the top 500 compound hits obtained from the ROCS algorithm, as ranked by the Tanimoto combo score (see Data Set S1 in the supplemental material), were manually inspected for similar chemical and structural features. They were further prioritized by factors such as a lack of known side effects, commercial availability, and the intellectual property considerations that would be needed for worldwide, inexpensive use. Fourteen candidates were tested for their effects on dengue virus growth and toxicity in BHK-21 and Huh7 cells (see Table S1 and Fig. S1 in the supplemental material).
Supplementary file : TABLE S1 Summary of hits for lead compounds ARDP0006 and ST-148 screened for anti-dengue activity in tissue culture cells. Hit compounds were tested for anti-dengue activity and cell toxicity in tissue culture cell lines. Antiviral activity is summarized as follows: −, not antiviral, with titer greater than 50% of vehicle; +, weakly antiviral, with titer between 20 and 50% of vehicle; ++, moderately antiviral, with titer between 5 and 20% of vehicle; +++, highly antiviral, with titer less than 5% of vehicle. Toxicity at these doses is represented as follows: −, nontoxic, with cell viability greater than 80% of vehicle; +, mild toxicity, with cell viability between 60 and 80% of vehicle; +++, high toxicity, with cell viability less than 60% of vehicle. Data summarized here are depicted graphically in Fig. S1 and Fig. 2C, 3C, and [4]C. The Tanimoto combo score of each hit during initial ROCS screening is indicated; higher Tanimoto combo scores are indicative of increased chemical similarity. Download Table S1, PDF file, 0.04 MB.
Supplementary file : FIG S1 Initial screening of eliminated hit compounds for anti-dengue activity in tissue culture cells. BHK-21 cells were pretreated with the compounds at the indicated concentrations for 30 min, infected with dengue virus at an MOI of 0.1 PFU/cell for 1 h, and then posttreated with compound. At 48 hpi, cellular supernatant was collected and titered by plaque assay (purple). Cell viability in uninfected cells in the presence of compounds for 48 h was measured by WST assay (gray). Both viral titer and cell viability are normalized to their relative DMSO vehicle control, N = 2. Download FIG S1, PDF file, 0.06 MB.

NS2B/3/4A = molecular target: T1, NS2B/3/4A (Dengue virus type 2, UniProt P29990); assay: In vitro translation-based proteinase cleavage assay of NS2B/3/4A precursor; type: biochemical; details: 100 μM pyrimethamine vs DMSO, 45-min time course, translation extracts
T1 construct: NS2B/3/4A protein was expressed in vitro and radiolabeled with [^35S]methionine; made in house; host or cells: rabbit reticulocyte lysate (TNT coupled T7; Promega), cell-free in vitro translation
T1 sequence (P29990 1476-2093): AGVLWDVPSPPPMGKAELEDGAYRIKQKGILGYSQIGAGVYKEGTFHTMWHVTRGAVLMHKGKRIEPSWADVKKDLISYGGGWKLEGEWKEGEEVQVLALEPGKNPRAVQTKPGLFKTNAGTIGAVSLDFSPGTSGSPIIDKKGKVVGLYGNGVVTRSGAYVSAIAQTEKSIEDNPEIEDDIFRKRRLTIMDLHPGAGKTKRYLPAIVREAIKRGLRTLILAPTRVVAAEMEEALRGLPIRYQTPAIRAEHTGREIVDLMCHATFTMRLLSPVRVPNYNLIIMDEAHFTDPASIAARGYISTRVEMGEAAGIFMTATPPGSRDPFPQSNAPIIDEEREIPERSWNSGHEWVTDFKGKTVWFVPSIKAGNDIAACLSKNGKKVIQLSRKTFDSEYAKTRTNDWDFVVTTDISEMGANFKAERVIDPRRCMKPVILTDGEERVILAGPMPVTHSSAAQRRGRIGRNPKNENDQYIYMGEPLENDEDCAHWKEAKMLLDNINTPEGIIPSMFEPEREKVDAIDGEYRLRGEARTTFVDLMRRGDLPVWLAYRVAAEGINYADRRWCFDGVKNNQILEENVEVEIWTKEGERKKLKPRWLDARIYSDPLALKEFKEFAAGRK
T1 sequence (P29990 1346-1475): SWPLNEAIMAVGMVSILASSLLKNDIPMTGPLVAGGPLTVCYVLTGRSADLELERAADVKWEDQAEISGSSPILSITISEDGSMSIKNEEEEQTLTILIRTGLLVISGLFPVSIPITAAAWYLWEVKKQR
Description: FIG 2 Pyrimethamine inhibits dengue virus and NS2B/3 proteinase cleavage like ARDP0006. (A) Chemical structures and (B) ROCS overlay of ARDP0006 and pyrimethamine. […] Compounds were added 1 h prior to infection, removed, and then readministered after removal of viral inoculum. Infectious virus in cell supernatant was quantified by plaque assay at 24 hpi (left y axis, black or red). Cell viability was measured at the same pyrimethamine doses 24 h posttreatment by WST-1 assay (right y axis, gray). Viral titer and cell viability were normalized to DMSO-treated samples. (D) Splenic titers of DENV2-infected AGB6 mice at 4 days postinfection. Mice were infected with 1 × 10^6 PFU DENV2 and treated twice daily with 20 mg/kg pyrimethamine (n = 9) or a vehicle control (n = 10). Data were analyzed by two-tailed unpaired t test. […] Reaction samples were obtained over a 45-min time course, separated by SDS-PAGE, and the fraction of uncleaved proteinase precursor remaining was determined as described previously ([23]). Data from three replicates were fit using single-phase exponential decay functions, and P value was determined by comparing the rate constant, K, of the models using the extra sum-of-squares F test. […]
Proteinase cleavage assays were performed as previously described ([23]). […] Protein quantification was performed using ImageQuant TL 8.1 software (GE Healthcare Life Sciences).

dengue virus [6] = assay: Antiviral activity in VPS34 knockout Huh7 cells; type: cell-based; details: 5 μM compound, MOI 0.5, 24 hpi
Description: FIG 5 Vandetanib and spautin-1 inhibit dengue maturation and egress in a VPS34-independent manner. […] Cells were pretreated for 1 h, infected for 1 h at an MOI of 0.5 PFU/cell, and posttreated for an additional 23 h. N = 4, one-way ANOVA with Dunnett’s multiple-comparison test. ns, not significant (P > 0.05); **, P < 0.01; ****, P < 0.0001. (C) Huh7 cells transfected with a luciferase-expressing RNA replicon were treated with 3 μM vandetanib (orange) or 1% DMSO vehicle control (black) for 1 h prior to transfection and up to 52 h posttransfection. Luciferase intensity was quantified as a measure of viral protein abundance. Luciferase intensity was shown as relative light units (RLU). The use of an RNA replicon that is directly transfected into cells reflects only translation and RNA replication steps of viral infection, not viral packaging or cell exit. N = 4, two-way ANOVA with Sikak’s multiple-comparison test. […] (D) VPS34 was not required for spautin-1 or vandetanib anti-dengue activity. Wild-type and VPS34 knockout Huh7 cells were treated with 5 μM spautin-1, 5 μM vandetanib, or DMSO. Cells were pretreated, infected at an MOI of 0.5, and posttreated as described above for panels A and B. At 24 hpi, cellular supernatant was collected and titered by plaque assay. N ≥ 3. One-way ANOVA with Dunnett’s multiple-comparison test; *, P < 0.05; **, P < 0.01; ***, P < 0.001; ****, P < 0.0001. […]

dengue virus [7] = assay: Extracellular and intracellular virus quantification in Huh7 cells; type: cell-based; details: IC90 dose (spautin-1 2.4 μM, vandetanib 3.6 μM), Huh7, 24 hpi
Description: FIG 5 Vandetanib and spautin-1 inhibit dengue maturation and egress in a VPS34-independent manner. […] Cells were pretreated for 1 h, infected for 1 h at an MOI of 0.5 PFU/cell, and posttreated for an additional 23 h. N = 4, one-way ANOVA with Dunnett’s multiple-comparison test. ns, not significant (P > 0.05); **, P < 0.01; ****, P < 0.0001. (C) Huh7 cells transfected with a luciferase-expressing RNA replicon were treated with 3 μM vandetanib (orange) or 1% DMSO vehicle control (black) for 1 h prior to transfection and up to 52 h posttransfection. Luciferase intensity was quantified as a measure of viral protein abundance. Luciferase intensity was shown as relative light units (RLU). The use of an RNA replicon that is directly transfected into cells reflects only translation and RNA replication steps of viral infection, not viral packaging or cell exit. N = 4, two-way ANOVA with Sikak’s multiple-comparison test. […] (D) VPS34 was not required for spautin-1 or vandetanib anti-dengue activity. Wild-type and VPS34 knockout Huh7 cells were treated with 5 μM spautin-1, 5 μM vandetanib, or DMSO. Cells were pretreated, infected at an MOI of 0.5, and posttreated as described above for panels A and B. At 24 hpi, cellular supernatant was collected and titered by plaque assay. N ≥ 3. One-way ANOVA with Dunnett’s multiple-comparison test; *, P < 0.05; **, P < 0.01; ***, P < 0.001; ****, P < 0.0001.
After 1 h, virus inoculum was aspirated and replaced with medium containing compounds or 1% DMSO. After 24-h total infection, extracellular virus was collected in cellular supernatant and quantified by plaque assay. To collect intracellular virus, cells were washed with PBS, incubated for 3 min at 4°C with high-salt buffer (1 M NaCl, 50 mM sodium bicarbonate [pH 9.5]) to detach cell-associated extracellular virus ([63]), washed twice with PBS, detached with 0.25% trypsin-EDTA, and isolated by centrifugation (500 × g, 5 min, 4°C). Infected cell pellets were resuspended in 750 μl cell culture medium, lysed by repeated freeze/thaw in liquid nitrogen followed by 37°C water bath. Debris was removed by centrifugation (3,200 × g, 5 min, 4°C), and infectious intracellular virus was quantified by BHK-21 plaque assay.

[8] = Huh-7, DENV2-infected Huh7 cells, single infectious cycle, plaque assay at 24 hpi, read-out: IC50 of viral inhibition (infectious extracellular virus)

Row | SMILES | IC50 (NS2B/3 proteinase) | IC50 (dengue virus [1]) | IC50 (DENV2 [2]; DENV2, Huh-7, read-out: IC50 of viral inhibition (infectious extracellular virus)) | LD50 ([3]; IP) | LD50 ([3]; Oral) | Acute toxicity in words (Table S2) ([3]; healthy mice) | Splenic titer of dengue virus (DENV2 [4]) | Splenic titer of dengue virus (DENV2 [4]; listed as pyrimethamine) | Mortality on sustained treatment (survival experiments) (DENV2 [4]; infected AGB6 mice, sustained pyrimethamine treatment) | Antiviral (dengue virus [5]) | IC50 (DENV2 [2]; [8]) | Cleavage kinetics of NS2B/3/4A precursor (NS2B/3/4A) | Cleavage kinetics of NS2B/3/4A precursor (NS2B/3/4A; listed as pyrimethamine) | Antiviral activity in VPS34 knockout cells (dengue virus [6]) | Extracellular viral titer (dengue virus [7]) | Infectious intracellular virus (dengue virus [7]) | IC90 (DENV2 [2]; Huh-7, DENV2-infected Huh7 cells, from dose-response curve fit, 24 hpi)
1 | O=C1c2c(O)ccc([N+](=O)[O-])c2C(=O)c2c([N+](=O)[O-])ccc(O)c21 [ARDP0006] | 620 µM | 2.7 µM | 0.59 µM |  |  |  |  |  |  |  |  |  |  |  |  |  | 
2 | CCc1nc(N)nc(N)c1-c1ccc(Cl)cc1 [Pyrimethamine, pyrimethamine] |  |  |  | 74 mg/kg | 92 mg/kg | well tolerated | significantly reduced viral splenic burden | reduced viral loads; also recorded: significant reduction in splenic titer | caused marked mortality | +++ (highly antiviral, with titer less than 5% of vehicle) | 1.2 µM | inhibited intramolecular NS2B/3 cleavage | significantly slowed dengue virus NS2B/3 cleavage; also recorded: slowing proteinase cleavage in translation extracts |  |  |  | 
3 | Fc1ccc(CNc2ncnc3ccc(F)cc23)cc1 [spautin-1] |  |  |  |  |  |  |  |  |  |  | 1.1 µM |  |  | retained significant antiviral activity; also recorded: retained their ability to limit dengue virus egress | significantly reduced; also recorded: reduced extracellular virus | unchanged; also recorded: abundant intracellular virus | 2.4 µM

— article PMC7667029, “A Targeted Computational Screen of the SWEETLEAD Database Reveals FDA-Approved Compounds with Anti-Dengue Viral Activity” (mBio, 2020)
